Molecular target: human GSK3β (Homo sapiens, UniProt P49841)
Test: Screening for GSK3 inhibitory activity using a cell-free assay
Assay type: biochemical
Settings: read-out: IC50 with respect to GSK3
Protocol: This amount represents the amount of radiolabeled phosphate incorporated into the peptide substrate.
The captured radiolabeled peptide substrate can be quantitated in a scintillation counter using known methods. […] If an inhibitor is present during the reaction, GSK3 activity will be reduced, and a smaller quantity of radiolabeled phosphate will thus be incorporated into the peptide substrate.
Pyrimidine and pyridine compounds of the present invention were dissolved in DMSO, then tested for inhibition of human GSK3β (the nucleotide sequence for human GSK3β appears in GenBank under Accession No. L33801).
While the reaction was proceeding, streptavidin-coated Labsystems “Combiplate 8” capture plates (Labsystems, Helsinki, Finland) were blocked by incubating them with 300 μl/well of PBS containing 1% bovine serum albumin for at least one hour at room temperature. The blocking solution was then removed by aspiration, and the capture plates were filled with 100 ul/well of stopping reagent (50 μM ATP/20 mM EDTA).
When the three hour enzyme reaction was finished, triplicate 100 μl aliquots of each reaction mix were transferred to three wells containing stopping solution, one well on each of the three capture plates, and the well contents were mixed well. […] Finally, 200 μl of Microscint-20 scintillation fluid was added to each well of the plate. The plates were coated with plate sealers, then left on a shaker for 30 minutes. Each capture plate was counted in a Packard TopCount scintillation counter (Meridian, Conn.) and the results were plotted as a function of compound concentration.

Chain of human GSK3β (P49841 whole entry): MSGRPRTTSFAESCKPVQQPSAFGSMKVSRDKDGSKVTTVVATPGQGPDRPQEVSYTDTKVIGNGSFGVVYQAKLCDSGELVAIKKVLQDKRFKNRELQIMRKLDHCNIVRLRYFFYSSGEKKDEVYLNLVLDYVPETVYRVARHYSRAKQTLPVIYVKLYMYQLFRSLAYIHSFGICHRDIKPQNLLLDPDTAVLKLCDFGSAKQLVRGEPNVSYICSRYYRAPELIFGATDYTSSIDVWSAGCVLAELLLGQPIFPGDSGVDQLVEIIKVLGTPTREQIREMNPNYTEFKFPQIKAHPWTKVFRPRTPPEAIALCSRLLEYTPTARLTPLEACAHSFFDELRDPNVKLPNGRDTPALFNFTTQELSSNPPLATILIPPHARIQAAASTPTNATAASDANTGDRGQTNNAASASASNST

SMILES | IC50 [nM]
COc1ccc(-c2nc(NCCNc3ccc([N+](=O)[O-])cn3)nc(-c3ccc([N+](=O)[O-])cc3)c2C(=O)O)cc1 [4-(4-methoxyphenyl)-2-({2-[(5-nitro(2-pyridyl))amino]ethyl}-amino)-6-(4-nitrophenyl)pyrimidine-5-carboxylic acid] | ≤ 10000
O=[N+]([O-])c1ccc(NCCNc2ncc(-c3ccccc3)c(-c3ccc(O)cc3)n2)nc1 [4-[2-({2-[(5-nitro(2-pyridyl))amino]ethyl}amino)-5-phenylpyrimidin-4-yl]phenol] | ≤ 10000
O=[N+]([O-])c1ccc(NCCNc2nccc(-c3ccc(O)cc3)n2)nc1 [4-[2-({2-[(5-nitro-2-pyridyl)-amino]ethyl}amino)pyrimidin-4-yl]phenol] | ≤ 10000
NS(=O)(=O)c1ccc(-c2ccnc(NCCNc3ccc([N+](=O)[O-])cn3)n2)cc1 [4-[2-({2-[(5-nitro-2-pyridyl)amino]ethyl}amino)pyrimidin-4-yl]benzenesulfonamide] | ≤ 10000
N#Cc1ccc(-c2nc(NCCNc3ccc([N+](=O)[O-])c(N)n3)ncc2-c2ncc[nH]2)cc1 [4-[2-({2-[(6-amino-5-nitro(2-pyridyl))amino]-ethyl}amino)-5-imidazol-2-ylpyrimidin-4-yl]benzenecarbonitrile] | ≤ 1000
COc1cccc(NCCNc2nccc(-c3ccc(C(N)=O)cc3)n2)n1 [4-[2-({2-[(6-methoxy-2-pyridyl)amino]ethyl}amino)pyrimidin-4-yl]benzamide] | ≤ 1000
NC(=O)c1ccc(-c2ccnc(NCCCOc3cccc(C(F)(F)F)c3)n2)cc1 [4-[2-({3-[3-(trifluoromethyl)phenoxy]propyl}amino)pyrimidin-4-yl]benzamide] | ≤ 1000
NC(=O)c1ccc(-c2ccnc(NCCCNc3ccc([N+](=O)[O-])cn3)n2)cc1 [4-[2-({3-[(5-nitro-2-pyridyl)amino]propyl}amino)pyrimidin-4-yl]benzamide] | ≤ 1000
NC(=O)c1ccc(-c2ccnc(NCc3cc(C(F)(F)F)cc(C(F)(F)F)c3)n2)cc1 [4-[2-({[3,5-bis(trifluoromethyl)phenyl]methyl}amino)pyrimidin-4-yl]benzamide] | ≤ 10000
NC(=O)c1ccc(-c2ccnc(NCc3cccc(-c4cccc(N)c4)c3)n2)cc1 [4-[2-({[3-(3-aminophenyl)phenyl]methyl}amino)pyrimidin-4-yl]benzamide] | ≤ 10000
COc1cccc(-c2cccc(CNc3nccc(-c4ccc(C(N)=O)cc4)n3)c2)c1 [4-[2-({[3-(3-methoxyphenyl)phenyl]methyl}amino)pyrimidin-4-yl]benzamide] | ≤ 10000
NC(=O)c1ccc(-c2ccnc(NCc3cccc(C(F)(F)F)c3)n2)cc1 [4-[2-({[3-(trifluoromethyl)phenyl]methyl}amino)pyrimidin-4-yl]-benzamide] | ≤ 10000
NC(=O)c1ccc(-c2ccnc(NCc3ccc(-c4cccc(N)c4)cc3)n2)cc1 [4-[2-({[4-(3-aminophenyl)phenyl]methyl}amino)pyrimidin-4-yl]benzamide] | ≤ 10000
NC(=O)c1ccc(-c2ccnc(NCc3ccc(-c4ccc(F)cc4)cc3)n2)cc1 [4-[2-({[4-(4-fluorophenyl)phenyl]methyl}amino)pyrimidin-4-yl]benzamide] | ≤ 10000
NC(=O)c1ccc(-c2ccnc(NCc3ccc(C(F)(F)F)cc3)n2)cc1 [4-[2-({[4-(trifluoromethyl)phenyl]methyl}amino)pyrimidin-4-yl]benzamide] | ≤ 10000
Cc1noc(-c2cnc(NCCNc3ccc([N+](=O)[O-])cn3)nc2-c2ccc(C#N)cc2)n1 [4-[5-(3-methyl(1,2,4-oxadiazol-5-yl))-2-({2-[(5-nitro(2-pyridyl))amino]-ethyl}amino)pyrimidin-4-yl]benzenecarbonitrile] | ≤ 1000

Second part, the molecule after the results:

IC50 [nM] | SMILES
≤ 1000 | O=C(O)c1ccc(-c2nc(NCCNc3ccc([N+](=O)[O-])cn3)nc(-c3ccc([N+](=O)[O-])cc3)c2C(=O)O)cc1 [4-(4-carboxyphenyl)-2-({2-[(5-nitro(2-pyridyl))amino]-ethyl}amino)-6-(4-nitrophenyl)pyrimidine-5-carboxylic acid]
≤ 1000 | N#Cc1ccc(-c2nc(NCCNc3ccc([N+](=O)[O-])cn3)nc(-c3ccc([N+](=O)[O-])cc3)c2C(=O)O)cc1 [4-(4-cyanophenyl)-2-({2-[(5-nitro(2-pyridyl))-amino]ethyl}amino)-6-(4-nitrophenyl)pyrimidine-5-carboxylic acid]
≤ 1000 | N#Cc1ccc(-c2nc(NCCNc3ccc([N+](=O)[O-])cn3)ncc2C(N)=O)cc1 [4-(4-cyanophenyl)-2-({2-[(5-nitro(2-pyridyl))-amino]ethyl}amino)pyrimidine-5-carboxamide]
≤ 1000 | N#Cc1ccc(-c2nc(NCCNc3ccc([N+](=O)[O-])cn3)nc(-c3cccc([N+](=O)[O-])c3)c2C(=O)O)cc1 [4-(4-cyanophenyl)-2-({2-[(5-nitro(2-pyridyl))amino]ethyl}amino)-6-(3-nitrophenyl)pyrimidine-5-carboxylic acid]
≤ 1000 | N#Cc1ccc(-c2nc(NCCNc3ccc([N+](=O)[O-])cn3)nc(-c3ccccc3)c2C(=O)O)cc1 [4-(4-cyanophenyl)-2-({2-[(5-nitro(2-pyridyl))amino]ethyl}amino)-6-phenylpyrimidine-5-carboxylic acid]
≤ 1000 | N#Cc1ccc(-c2nc(NCCNc3ccc([N+](=O)[O-])cn3)ncc2C#N)cc1 [4-(4-cyanophenyl)-2-({2-[(5-nitro(2-pyridyl))amino]ethyl}amino)pyrimidine-5-carbonitrile]
≤ 1000 | N#Cc1ccc(-c2nc(NCCNc3ccc([N+](=O)[O-])cn3)ncc2C(=O)O)cc1 [4-(4-cyanophenyl)-2-({2-[(5-nitro(2-pyridyl))amino]ethyl}amino)pyrimidine-5-carboxylic acid]
≤ 1000 | N#Cc1ccc(-c2nc(NCCNc3ccc([N+](=O)[O-])cn3)nc(-c3ccoc3)c2C(=O)O)cc1 [4-(4-cyanophenyl)-6-(3-furyl)-2-({2-[(5-nitro(2-pyridyl))-amino]ethyl}amino)pyrimidine-5-carboxylic acid]
≤ 1000 | N#Cc1ccc(-c2nc(NCCNc3ccc([N+](=O)[O-])cn3)nc(-c3ccc(F)cc3)c2C(=O)O)cc1 [4-(4-cyanophenyl)-6-(4-fluorophenyl)-2-({2-[(5-nitro(2-pyridyl))amino]ethyl}-amino)pyrimidine-5-carboxylic acid]
≤ 1000 | N#Cc1cnc(NCCNc2nccc(-c3ccc(C(N)=O)cc3)n2)nc1N [4-[2-({2-[(4-amino-5-cyano-pyrimidin-2-yl)amino]ethyl}amino)pyrimidin-4-yl]benzamide]
≤ 1000 | N#Cc1ccc(NCCNc2nccc(-c3ccc(C(N)=O)cc3)n2)nc1 [4-[2-({2-[(5-cyano-2-pyridyl)amino]-ethyl}amino)pyrimidin-4-yl]benzamide]
≤ 1000 | N#Cc1ccc(-c2nc(NCCNc3ccc([N+](=O)[O-])cn3)ncc2NCc2ccccc2)cc1 [4-[2-({2-[(5-nitro(2-pyridyl))amino]ethyl}amino)-5-[benzylamino]pyrimidin-4-yl]benzenecarbonitrile]
≤ 1000 | NC(=O)c1ccc(-c2ccnc(NCCNc3ccc([N+](=O)[O-])cn3)n2)cc1 [4-[2-({2-[(5-nitro-2-pyridyl)amino]ethyl}amino)-pyrimidin-4-yl]benzamide]
